# Experimental data from EP0046990A2, “2-Halogeno-4-alkyl-4,7-dihydro-7-oxo-thieno(3,2-b)-pyridine-6-carboxylic acids, salts thereof at the carboxyl group, pharmaceutical use thereof, and intermediates thereof” (KANEBO, LTD., priority 1980, dated 1982).
# Tests used:
# [1] = system: Escherichia coli NIHJ; assay: antimicrobial test (MIC); assay type: cell-based
# [2] = system: Staphylococcus aureus 209-P; assay: antimicrobial test (MIC); assay type: cell-based
# [3] = system: Proteus mirabilis 1287; assay: antimicrobial test (MIC); assay type: cell-based
# [4] = system: Bacillus sub-tillis ATCC 6633; assay: antimicrobial test (MIC); assay type: cell-based; conditions: ATCC6633
# [5] = system: Serratia marcescens IFO 3046; assay: antimicrobial test (MIC); assay type: cell-based; conditions: IFO3046
# [6] = system: Escherichia coli K-12; assay: antimicrobial test (MIC); assay type: cell-based; conditions: K12
# [7] = system: Proteus vulgaris OX-19; assay: antimicrobial test (MIC); assay type: cell-based; conditions: OX19
# [8] = system: Klebsiella pneumoniae IFO 3512; assay: antimicrobial test (MIC); assay type: cell-based; conditions: IFO3512
# [9] = in vivo; conditions: mouse, oral administration to mice
# Excerpt: The compounds of this invention have low toxicity.
Compound,MIC [1] [µg/mL],MIC [2] [µg/mL],MIC [3] [µg/mL],MIC [4] [µg/mL],MIC [5] [µg/mL],MIC [6] [µg/mL],MIC [7] [µg/mL],MIC [8] [µg/mL],LD50 [9] [mg/kg]
"CCn1cc(C(=O)O)c(=O)c2sc(Br)cc21 [Compound B, 2-bromo-4,7-dihydro-4-ethyl-7-oxo-thieno(3,2-b)pyridine-6-carboxylic acid]",1.56,> 100,3.13,6.25,1.56,6.25,6.25,3.13,
"CCn1cc(C(=O)O)c(=O)c2sc(Cl)cc21 [Compound A, 2-chloro-4,7-dihydro-4-ethyl-7-oxo-thieno(3,2-b)pyridine-6-carboxylic acid]",1.56,> 100,6.25,12.5,3.13,12.5,12.5,6.25,
"CCn1cc(C(=O)O)c(=O)c2ccc(C)nc21 [Nalidixic acid, reference compound]",1.56,> 100,3.13,3.13,1.56,6.25,3.13,1.56,
"CCn1cc(C(=O)O)c(=O)c2sc(I)cc21 [Compound C, 2-iodo-4,7-dihydro-4-ethyl-7-oxo-thieno(3,2-b)pyridine-6-carboxylic acid]",1.56,25,0.78,1.56,0.78,3.13,0.78,1.56,2800
